Values of other authors, collected in patent US8592481B2 (Depomed, Inc., priority 2005, dated 2013).

Conditions: in vivo

Substance: 1-(aminomethyl)cyclohexane acetic acid [gabapentin]
- circulating gabapentin bound to plasma proteins: 3%
